{"source": "ChEMBL document CHEMBL5316313", "about": "“Discovery of Novel 3-Phenylpiperidine Derivatives Targeting the β-Catenin/B-Cell Lymphoma 9 Interaction as a Single Agent and in Combination with the Anti-PD-1 Antibody for the Treatment of Colorectal Cancer” (J Med Chem, 2023)", "key": {"HCT-116 [1]": {"test_system": "HCT-116", "assay": "Induction of apoptosis in Wnt-dependent human HCT-116 cells assessed as late apoptotic cells at 10 uM incubated for 24 hrs by Annexin V-Alexa Fluor 647/PI staining based flow cytomtery (Rvb=14.7%)", "format": "functional"}, "HEK293 [2]": {"test_system": "HEK293", "assay": "cells", "settings": "Homo sapiens, HEK293, 48 h"}, "[3]": {"assay": "Cmax in Sprague-Dawley rat at 21 mg/kg, ip and measured upto 24 hrs by LC-MS analysis", "format": "ADME, organism-based", "design": "dose 21 mg/kg, time < 24 hrs, route ip", "settings": "in vivo"}, "HEK293 [4]": {"test_system": "HEK293", "assay": "Induction of apoptosis in Wnt-independent human HEK293 cells assessed as viable cells at 20 uM incubated for 24 hrs by Annexin V-Alexa Fluor 647/PI staining based flow cytomtery (Rvb=70.5%)", "format": "functional", "settings": "read-out: Activity"}, "CT26 [5]": {"test_system": "CT26", "assay": "Synergistic antitumor activity in mouse CT26 cells xenografted in BALB/c mouse assessed as increase in GZMB mRNA expression level in tumor at 30 mg/kg, ip QD in presence of anti-PD-1 antibody cotreatment at 10 mg/kg,ip BIW by qRT-PCR analysis", "format": "functional, organism-based"}, "RKO": {"test_system": "RKO", "assay": "cells", "settings": "Homo sapiens, 48 h"}, "[6]": {"assay": "Microsomal stability in mouse liver microsomes assessed as intrinsic clearance at […] and measured upto 60 mins by LC-MS/MS analysis", "format": "ADME, Microsome", "settings": "read-out: CLH"}, "HCT-116 [7]": {"test_system": "HCT-116", "assay": "cells", "settings": "Homo sapiens, HCT-116, 48 h"}, "[8]": {"assay": "Microsomal stability in mouse liver microsomes assessed as half life at […] and measured upto 60 mins by LC-MS/MS analysis", "format": "ADME, Microsome"}, "Beta catenin-BCL9": {"target": "T1, Beta catenin-BCL9 (Mus musculus, UniProt Q02248+Q9D219)", "T1 sequence (Q02248 whole entry)": "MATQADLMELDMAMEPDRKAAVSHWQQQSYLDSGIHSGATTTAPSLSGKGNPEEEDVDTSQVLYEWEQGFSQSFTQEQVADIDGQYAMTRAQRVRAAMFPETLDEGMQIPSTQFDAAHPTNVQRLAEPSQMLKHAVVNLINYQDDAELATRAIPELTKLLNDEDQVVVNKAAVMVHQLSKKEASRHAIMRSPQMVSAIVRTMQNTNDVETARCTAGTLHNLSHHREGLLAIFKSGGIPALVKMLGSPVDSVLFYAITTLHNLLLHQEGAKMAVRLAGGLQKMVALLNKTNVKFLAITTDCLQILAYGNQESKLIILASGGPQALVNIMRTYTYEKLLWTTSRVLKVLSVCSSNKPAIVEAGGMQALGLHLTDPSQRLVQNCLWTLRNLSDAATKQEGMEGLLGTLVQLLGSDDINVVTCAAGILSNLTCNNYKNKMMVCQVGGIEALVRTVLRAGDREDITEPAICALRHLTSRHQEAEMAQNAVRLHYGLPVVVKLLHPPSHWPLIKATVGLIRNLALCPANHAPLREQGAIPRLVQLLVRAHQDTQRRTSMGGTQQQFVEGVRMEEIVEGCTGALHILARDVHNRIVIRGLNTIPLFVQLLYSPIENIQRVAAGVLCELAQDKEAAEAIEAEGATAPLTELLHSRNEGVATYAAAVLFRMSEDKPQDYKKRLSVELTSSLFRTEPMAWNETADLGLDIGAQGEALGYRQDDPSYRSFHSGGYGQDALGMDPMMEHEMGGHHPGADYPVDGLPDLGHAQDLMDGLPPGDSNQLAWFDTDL", "T1 sequence (Q9D219 whole entry)": "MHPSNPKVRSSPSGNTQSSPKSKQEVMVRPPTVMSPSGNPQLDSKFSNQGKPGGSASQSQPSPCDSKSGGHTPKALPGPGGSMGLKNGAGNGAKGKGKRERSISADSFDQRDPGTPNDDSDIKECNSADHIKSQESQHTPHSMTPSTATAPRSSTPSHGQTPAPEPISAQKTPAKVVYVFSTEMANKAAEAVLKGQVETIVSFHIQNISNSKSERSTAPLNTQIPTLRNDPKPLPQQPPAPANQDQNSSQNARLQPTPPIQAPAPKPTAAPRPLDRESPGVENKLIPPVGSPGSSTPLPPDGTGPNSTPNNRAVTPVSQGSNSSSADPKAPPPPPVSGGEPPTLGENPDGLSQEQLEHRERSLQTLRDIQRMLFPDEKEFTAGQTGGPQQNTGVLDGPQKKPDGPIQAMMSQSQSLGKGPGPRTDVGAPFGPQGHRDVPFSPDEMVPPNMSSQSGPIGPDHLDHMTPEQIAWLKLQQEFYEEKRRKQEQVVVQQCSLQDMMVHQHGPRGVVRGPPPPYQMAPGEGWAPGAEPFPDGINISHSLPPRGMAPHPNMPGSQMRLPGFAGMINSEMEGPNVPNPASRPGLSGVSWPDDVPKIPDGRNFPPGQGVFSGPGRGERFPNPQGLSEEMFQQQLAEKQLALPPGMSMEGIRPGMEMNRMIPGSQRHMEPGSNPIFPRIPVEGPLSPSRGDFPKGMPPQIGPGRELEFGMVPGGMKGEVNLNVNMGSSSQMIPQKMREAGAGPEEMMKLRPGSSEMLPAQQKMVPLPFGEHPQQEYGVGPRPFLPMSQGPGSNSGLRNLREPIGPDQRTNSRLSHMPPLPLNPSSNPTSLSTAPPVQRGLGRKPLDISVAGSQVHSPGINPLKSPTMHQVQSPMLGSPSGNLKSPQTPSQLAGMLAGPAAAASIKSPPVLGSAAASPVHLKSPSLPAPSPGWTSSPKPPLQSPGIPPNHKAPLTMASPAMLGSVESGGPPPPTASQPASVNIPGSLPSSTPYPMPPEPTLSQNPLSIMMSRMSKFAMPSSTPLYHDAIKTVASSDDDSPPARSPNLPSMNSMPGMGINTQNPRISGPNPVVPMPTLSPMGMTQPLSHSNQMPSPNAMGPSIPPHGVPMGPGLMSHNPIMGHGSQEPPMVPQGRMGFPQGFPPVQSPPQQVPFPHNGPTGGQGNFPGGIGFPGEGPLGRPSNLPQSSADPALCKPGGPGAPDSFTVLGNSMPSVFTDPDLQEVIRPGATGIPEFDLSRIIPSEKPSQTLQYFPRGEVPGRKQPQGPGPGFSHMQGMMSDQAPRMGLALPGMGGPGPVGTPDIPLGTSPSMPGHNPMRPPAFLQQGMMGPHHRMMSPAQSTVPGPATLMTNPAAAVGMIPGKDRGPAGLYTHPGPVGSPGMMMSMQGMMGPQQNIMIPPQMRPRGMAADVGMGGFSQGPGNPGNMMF", "assay": "Inhibition of beta-catenin/BCL9 protein-protein interaction in Wnt-dependent mouse CT26 cells assessed as reduction in Axin2 expression level by qRT-PCR assay", "format": "cell-based"}, "A549": {"test_system": "A549", "assay": "cells", "settings": "Homo sapiens, A549, 48 h"}, "SW480": {"test_system": "SW480", "assay": "cells", "settings": "Homo sapiens, SW480, 48 h"}, "CT26 [9]": {"test_system": "CT26", "assay": "cells", "settings": "Mus musculus, CT26, 48 h"}}, "note": "Activity calls are given as the source filed them. No cut-off for these calls is given here.", "data": [{"smiles": "CC(C)c1ccc(-c2cccc(S(=O)(=O)N3CCCC(c4cccc(OC(C)(C)C(=O)NS(=O)(=O)c5ccc(C(F)(F)F)cc5)c4)C3)c2)cc1", "note": "(stereo not given)", "values": [{"measurement": "Activity", "setting": "HCT-116 [1]", "result": 21.5, "unit": "%"}, {"measurement": "IC50", "setting": "HEK293 [2]", "result": "> 40", "unit": "µM"}, {"measurement": "Cmax", "setting": "[3]", "result": 6960, "unit": "ng/mL"}, {"measurement": "viability at 20 µM", "setting": "HEK293 [4]", "result": 64.7, "unit": "%"}, {"measurement": "Activity", "setting": "CT26 [5]", "result": "Active"}, {"measurement": "IC50", "setting": "RKO", "result": "> 40", "unit": "µM"}, {"measurement": "microsomal CLint", "setting": "[6]", "result": 66.2, "unit": "µL/min/mg"}, {"measurement": "IC50", "setting": "HCT-116 [7]", "result": 9.25, "unit": "µM"}, {"measurement": "half-life", "setting": "[8]", "result": 20.9, "unit": "min"}, {"measurement": "IC50", "setting": "Beta catenin-BCL9", "result": 0.66, "unit": "µM"}, {"measurement": "IC50", "setting": "A549", "result": "> 40", "unit": "µM"}, {"measurement": "IC50", "setting": "SW480", "result": 16.2, "unit": "µM"}, {"measurement": "IC50", "setting": "CT26 [9]", "result": 4.74, "unit": "µM"}]}, {"smiles": "O=C1[C@H](Cc2ccc(O)cc2)N2C(=O)CCN(C(=O)NCc3ccccc3)[C@H]2CN1Cc1cccc2ccccc12", "values": [{"measurement": "IC50", "setting": "HEK293 [2]", "result": 75.4, "unit": "µM"}, {"measurement": "IC50", "setting": "RKO", "result": 77.5, "unit": "µM"}, {"measurement": "IC50", "setting": "HCT-116 [7]", "result": 32.7, "unit": "µM"}, {"measurement": "IC50", "setting": "Beta catenin-BCL9", "result": 4.62, "unit": "µM"}, {"measurement": "IC50", "setting": "A549", "result": 54.1, "unit": "µM"}, {"measurement": "IC50", "setting": "SW480", "result": 8.43, "unit": "µM"}, {"measurement": "IC50", "setting": "CT26 [9]", "result": 18.6, "unit": "µM"}]}]}
